Data taken from patent US11780845B2 (Relay Therapeutics, Inc., priority 2019, dated 2023).

These molecules were tested against FGFR2 (Homo sapiens (Human), UniProt P21802) (assay: FGFR2 Biochemical Caliper Assay).
Description: Compounds of the present invention were also tested in a FGFR2 Biochemical Caliper Assay. Compounds were prepared in 10 mM DMSO solution and serially diluted into 11 concentrations by 3-fold dilution. […] 5 uL of ATP solution (100 uM) was added to start the reaction and the plate was incubated for 90 minutes, then 70 uL of stopping buffer (0.5M EDTA) was added to terminate the reaction. Each well was analyzed using EZ reader.

FGFR2, sequence (P21802 22-821): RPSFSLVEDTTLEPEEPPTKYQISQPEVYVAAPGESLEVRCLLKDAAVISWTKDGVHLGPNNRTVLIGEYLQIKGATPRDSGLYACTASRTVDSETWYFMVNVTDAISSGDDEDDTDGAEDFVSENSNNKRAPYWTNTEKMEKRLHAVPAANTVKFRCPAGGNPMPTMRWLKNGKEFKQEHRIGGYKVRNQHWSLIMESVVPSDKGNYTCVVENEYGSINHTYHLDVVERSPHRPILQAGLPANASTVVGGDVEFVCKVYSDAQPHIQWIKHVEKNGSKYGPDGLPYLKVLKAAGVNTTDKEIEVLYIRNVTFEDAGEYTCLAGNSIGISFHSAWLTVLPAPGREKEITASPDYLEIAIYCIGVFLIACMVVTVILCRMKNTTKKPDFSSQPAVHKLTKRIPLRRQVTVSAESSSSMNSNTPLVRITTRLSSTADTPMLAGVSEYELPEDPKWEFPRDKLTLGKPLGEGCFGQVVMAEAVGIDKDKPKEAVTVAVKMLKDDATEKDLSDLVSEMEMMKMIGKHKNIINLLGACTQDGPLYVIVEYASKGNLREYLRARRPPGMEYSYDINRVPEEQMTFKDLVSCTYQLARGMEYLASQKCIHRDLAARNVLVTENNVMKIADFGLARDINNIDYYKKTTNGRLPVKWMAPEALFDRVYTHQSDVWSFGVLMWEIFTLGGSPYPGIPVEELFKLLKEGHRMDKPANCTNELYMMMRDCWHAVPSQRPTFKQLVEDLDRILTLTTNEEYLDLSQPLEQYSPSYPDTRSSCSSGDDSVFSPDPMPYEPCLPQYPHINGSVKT

Row | SMILES | IC50 [nM]
1 | C=C(C)C(=O)Nc1ccc(-c2c(-c3ccc(N(C)C(=O)C4CCCC4)cc3)c3c(N)ncnc3n2C)cc1 [Example 222] | 1000 to 100000
2 | C=C(C)C(=O)Nc1ccc(-c2c(-c3ccc(-c4nnc(NC)s4)cc3)c3c(N)ncnc3n2C)cc1 [Example 280] | 100 to 250
3 | C=C(C)C(=O)Nc1ccc(-c2c(-c3ccc(Oc4cnc(C)cn4)c(F)c3)c3c(N)ncnc3n2C)cc1 [Example 92] | 1000 to 100000
4 | C=C(C)C(=O)Nc1ccc(-c2c(-c3ccc(C(=O)N4CCC(OC)CC4)cc3)c3c(N)ncnc3n2C)cc1 [Example 242] | 1000 to 100000
5 | C=C(C)C(=O)Nc1ccc(-c2c(-c3ccc(C(=O)N4CCCC4)cn3)c3c(N)ncnc3n2C)cc1 [Example 596] | < 100
6 | C=C(C)C(=O)N(C)c1ccc(-c2c(-c3ccc(Oc4cccc(C)n4)cc3)c3c(N)ncnc3n2C)cc1 [Example 414] | 100 to 250
7 | C=CC(=O)N1Cc2ccc(-c3c(-c4ccc(Oc5cccc(C)n5)c(OC)c4)c4c(N)ncnc4n3C)cc2C1 [Example 8] | < 100
8 | C=C(C)C(=O)Nc1ccc(-c2c(-c3ccc(Oc4ncc(F)cn4)c(C)c3)c3c(N)ncnc3n2C)cc1 [Example 109] | 100 to 250
9 | C=CC(=O)Nc1ccc(-c2c(-c3cccc(OC)c3)c3c(N)ncnc3n2C)cc1 [Example 25] | < 100
10 | C=C(C)C(=O)Nc1ccc(-c2c(-c3ccc(C(=O)N4CCCC4)cc3)c3c(N)ncnc3n2C)c(CC)c1 [Example 477] | 100 to 250
11 | C=C(C)C(=O)Nc1ccc(-c2c(-c3ccc(C(=O)N4CCCC4)cc3C)c3c(N)ncnc3n2C)cc1 [Example 597] | 1000 to 100000
12 | C=C(C)C(=O)Nc1ccc(-c2c(-c3cnn(Cc4cccnc4)c3)c3c(N)ncnc3n2C)cc1 [Example 126] | 1000 to 100000
13 | C=C(C)C(=O)Nc1ccc(-c2c(-c3cc(C)c(Oc4ccccn4)c(O)c3)c3c(N)ncnc3n2C)cc1 [Example 129] | 250 to 1000
14 | C=CC(=O)N1CCC(n2cc(-c3c(-c4ccc(F)c(OC)c4)c4c(N)ncnc4n3C)cn2)CC1 [Example 610] | 250 to 1000
15 | C=C(C)C(=O)Nc1ccc(-c2c(C3=CCN(C(=O)NC)CC3)c3c(N)ncnc3n2C)cc1 [Example 268] | 1000 to 100000
16 | C=C(C)C(=O)Nc1ccc(-c2c(-c3ccc(Oc4ncc(Cl)cn4)c(OC)c3)c3c(N)ncnc3n2C)cc1 [Example 102] | 100 to 250
17 | C=C(C)C(=O)Nc1ccc(-c2c(-c3ccc(C(=O)N(CCN(C)C)CC(F)(F)F)cc3)c3c(N)ncnc3n2C)cc1 [Example 454] | 250 to 1000

Row | SMILES | IC50 [nM]
18 | C=C(C)C(=O)Nc1ccc(-c2c(-c3ccc(C(=O)N4CCC[C@@H]4C#N)cc3)c3c(N)ncnc3n2C)cc1 [Example 356] | 100 to 250
19 | C=C(C)C(=O)Nc1ccc(-c2c(-c3ccc(C(=O)N(C)CCO)cc3)c3c(N)ncnc3n2C)cc1 [Example 254] | 250 to 1000
20 | C=C(C)C(=O)Nc1ccc(-c2c(-c3ccc(-c4nccs4)cc3)c3c(N)ncnc3n2C)cc1 [Example 178] | 250 to 1000
21 | C=C(C)C(=O)Nc1ccc(-c2c(-c3ccc(C(=O)N(C)c4ncccn4)cc3)c3c(N)ncnc3n2C)cc1 [Example 256] | 1000 to 100000
22 | C=CC(=O)Nc1ccc(-c2c(-c3ccc(Oc4cccc(C)n4)c(C)c3)c3c(N)ncnc3n2C)cc1 [Example 19] | < 100
23 | C=C(C)C(=O)Nc1ccc(-c2c(-c3ccc(C(=O)NC4CC(CO)C4)cc3)c3c(N)ncnc3n2C)cc1 (stereo not shown) [Example 330] | 100 to 250
24 | C=C(C)C(=O)Nc1ccc(-c2c(C3=CC[C@H](C(=O)NCC(C)(C)OC)CC3)c3c(N)ncnc3n2C)cc1 (single isomer, unassigned) [Example 432] | 1000 to 100000
25 | C=C(C)C(=O)Nc1ccc(-c2c(-c3cnn(Cc4cccc(C)n4)c3)c3c(N)ncnc3n2C)cc1 [Example 439] | 1000 to 100000
26 | C=C(C)C(=O)Nc1ccc(-c2c(-c3ccc(Oc4nccc(C)n4)c(N(C)C)c3)c3c(N)ncnc3n2C)cc1 [Example 504] | 1000 to 100000
27 | C=C(C)C(=O)Nc1ccc(-c2c(-c3ccc(C(=O)NC4CCOC4)c(OC)c3)c3c(N)ncnc3n2C2COC2)cc1 (stereo not shown) [Example 400] | 100 to 250
28 | C=CC(=O)N1CC(c2c(-c3ccc(Oc4ccccc4)cc3)c3c(N)ncnc3n2C)C1 [Example 604] | < 100
29 | C=C(C)C(=O)Nc1ccc(-c2c(-c3ccc(C(=O)NC4CCOC4)c(F)c3)c3c(N)ncnc3n2C)cc1 (stereo not shown) [Example 396] | 100 to 250
30 | C=C(C)C(=O)Nc1ccc(-c2c(C3=CC[C@@H](C(=O)N4CC[C@@H](CO)C4)CC3)c3c(N)ncnc3n2C)cc1 (single isomer, unassigned) [Example 583] | 250 to 1000
31 | C=C(C)C(=O)Nc1ccc(-c2c(-c3ccc(C(=O)N(C)C[C@H]4CCOC4)cc3)c3c(N)ncnc3n2C)cc1 (single isomer, unassigned) [Example 472] | 250 to 1000
32 | C=C(C)C(=O)Nc1ccc(-c2c(-c3ccc(Oc4nccc(C)n4)c(OCC)c3)c3c(N)ncnc3n2C)cc1 [Example 491] | 1000 to 100000
33 | C=C(C)C(=O)Nc1ccc(-c2c(-c3ccc(C(=O)NCC4(C#N)CC4)cc3)c3c(N)ncnc3n2C)cc1 [Example 360] | < 100

Continued, values first:

Row | IC50 [nM] | SMILES
34 | 1000 to 100000 | C=C(C)C(=O)Nc1ccc(-c2c(-c3ccc(C(=O)N4CC(C5CCOC5)C4)cc3)c3c(N)ncnc3n2C)cc1 (stereo not shown) [Example 261]
35 | 1000 to 100000 | C=C(C)C(=O)Nc1ccc(-c2c(-c3ccn(Cc4cccc(C)n4)c(=O)c3)c3c(N)ncnc3n2C)cc1 [Example 488]
36 | < 100 | C=C(C)C(=O)Nc1ccc(-c2c(-c3ccc(C(=O)NCC4(O)CCC4)cc3)c3c(N)ncnc3n2C)cc1 [Example 347]
37 | 100 to 250 | C=C(C)C(=O)Nc1ccc(-c2c(-c3cnc4c(c3)OCCN4C)c3c(N)ncnc3n2C)cc1 [Example 214]
38 | < 100 | C=CC(=O)N[C@H]1C[C@H](n2cc(-c3c(-c4ccc(Oc5ccccc5)cc4)c4c(N)ncnc4n3C)cn2)C1 [Example 605]
39 | 250 to 1000 | C=C(C)C(=O)Nc1ccc(-c2c(-c3ccc(C(=O)N(C)C[C@@H]4CCOC4)cc3)c3c(N)ncnc3n2C)cc1 (single isomer, unassigned) [Example 473]
40 | < 100 | C=C(C)C(=O)Nc1ccc(-c2c(-c3ccc4c(c3)OCCN4C)c3c(N)ncnc3n2C)cc1 [Example 175]
41 | 100 to 250 | C=C(C)C(=O)Nc1ccc(-c2c(-c3ccc(OCC4CC4)cc3)c3c(N)ncnc3n2C)cc1 [Example 133]
42 | 250 to 1000 | C=CC(=O)Nc1ccc(-c2c(C3CCN(C(=O)C(C)CCNC)CC3)c3c(N)ncnc3n2C)cc1 (stereo not shown) [Example 105]
43 | < 100 | C=C(C)C(=O)Nc1ccc(-c2c(-c3ccc(Oc4cccc(C#N)n4)cc3)c3c(N)ncnc3n2C)cc1 [Example 345]
44 | 1000 to 100000 | C=C(C)C(=O)Nc1ccc(-c2c(-c3cc(F)c(Oc4cnccn4)c(F)c3)c3c(N)ncnc3n2C)cc1 [Example 118]
45 | 250 to 1000 | C=C(C)C(=O)Nc1ccc(-c2c(C3=CC[C@@H](C(=O)NCC(C)(C)OC)CC3)c3c(N)ncnc3n2C)cc1 (single isomer, unassigned) [Example 431]
46 | 1000 to 100000 | C=C(C)C(=O)Nc1ccc(-c2c(-c3ccc(C(=O)N4CCC(F)(F)CC4)cc3)c3c(N)ncnc3n2C)cc1 [Example 142]
47 | 100 to 250 | C=C(C)C(=O)Nc1ccc(-c2c(-c3ccc(C(=O)NCCCO)cc3)c3c(N)ncnc3n2C)cc1 [Example 336]
48 | 1000 to 100000 | C=C(C)C(=O)Nc1ccc(-c2c(-c3ccc(N4CCCC4=O)nc3)c3c(N)ncnc3n2C)cc1 [Example 208]
49 | < 100 | C=C(C)C(=O)Nc1ccc(-c2c(-c3ccc(NC(=O)C4CCC4)cc3)c3c(N)ncnc3n2C)cc1 [Example 226]
